Legend:
[1] = test system: fleas (Ctenocephalides felis); experiment: 6 Month PKPD study: efficacy against fleas on beagle dogs; type: in vivo; conditions: for Geometric mean live fleas (LF): dogs, 25 mg/kg topical on Day 0; for % Reduction live fleas: vs control
Experimental: (§1) The spiro-azetidine isoxazoline, (S)-1-(5′-(5-(3,5-dichloro-4-fluorophenyl)-5-(trifluoromethyl)-4,5-dihydroisoxazol-3-yl)-3′H-spiro[azetidine-3,1′-isobenzofuran]-1-yl)-2-(methylsulfonyl)ethanone (Compound 1) was used to conduct an in-vivo long-acting efficacy study.
(§2) The study assessed the efficacy of a 25 mg/kg (0.1 mL/kg) topical dose of Compound 1 versus control against fleas (Ctenocephalides felis) and ticks (Ixodes scapularis) on beagle dogs. The formulation was butyl digol:dimethyl isosorbide (90:10 v/v %), selected as it had excellent solubility for Compound 1. Eight male and eight female dogs were acclimated to the testing facility. On Day 0 of the study, each animal received a topical dose of Compound 1 or control (formulation without Compound 1). On Days 56, 89, 117, 145, and 173, animals were artificially infested with about 100 adult unfed fleas. Flea counts were conducted 24 hours post infestation. At each count, all fleas were removed from the dogs. On Days 55, 88, 116, 144, and 172, all dogs were infested with about 50 viable, unfed adult ticks. Tick counts were conducted 48 hours post infestation. At each count, all ticks were removed from the dogs. Further, some hair was removed from the left or right shoulder from three individual dogs from each treatment group 26 days post dose. The hair from each dog was equally divided and placed into two separate 20 mL scintillation vials. Ten female Rhipicephalus sanguineus and ten female Ixodes scapularis ticks were placed in the vials with the hair. Ticks were evaluated for viability at 2-4 hours, 24 hours, 48 hours and 72 hours post vial infestation.

[2] = Franz diffusion cell screening (FDCS), flux and Kp; type: in vitro ADME, canine
Experimental: FDCS yields flux rates and permeation constants for the formulations through a fixed membrane (e.g., canine-, feline-, and bovine-skin).
Canine skin, stored at −20° C. for a maximum of 1 year, was thawed, trimmed, and dermatomed to give a thin layer of skin about 0.8-1.5 mm in thickness. The skin was mounted onto the Franz diffusion cell and equilibrated with the receptor media, 50:50 v/v % EtOH:Milli-Q water, for 2 to 4 hours. The receptor media was selected to provide sink conditions for Compound 1. Once equilibrated, test formulations were applied to the donor side, generally 50 μL/cm^2. Samples were generally obtained at 12, 24, 30, 36, 42, and 48 hours, but can be obtained at any six timepoints out to 72 hours. A control vehicle of with Compound 1 (250 mg/mL) in butyl digol:dimethyl isosorbide (90:10 v/v %) was included in every FDCS study.
Post experiment samples were stored at 4° C. until analysed for Compound 1 concentration by LCMS. Cumulative amount of Compound 1 in ng/cm^2 was calculated and plotted versus time. The gradient of straight line portion of the graph yields the flux value (ng/cm^2/hr) for a given formulation, FIG. 1. The flux can be divided by the applied concentration of Compound 1 to yield the permeability constant Kp (cm/hr)—often converted to a log 10 scale.

[3] = Solubility of Compound 1 in the formulation; type: physicochemical; conditions: butyl digol:dimethyl isosorbide (90:10 v/v %)
Experimental: as §2

[4] = test system: ticks (Ixodes scapularis); experiment: 6 Month PKPD study: efficacy against ticks on beagle dogs; type: in vivo; conditions: for Geometric mean live ticks (LT): dogs, 25 mg/kg topical on Day 0; for % Reduction live ticks: vs control
Experimental: as §1, §2

[5] = test system: Rhipicephalus sanguineus ticks; experiment: Tick infested hair samples from treated dogs (contact activity); type: in vivo; conditions: for # Dead Ticks (mean): hair taken 26 days post dose, ten ticks per vial; for % Reduction: vs control
Experimental: as §2

Ixodes scapularis ticks = experiment: as above; type: in vivo; conditions: for # Dead Ticks (mean): hair taken 26 days post dose, ten ticks per vial; for % Reduction: vs control
Experimental: as §2

[6] = 25 mg/kg topical, butyl digol and dimethyl isosorbide, for 5 months

For CS(=O)(=O)CC(=O)N1CC2(C1)OCc1cc(C3=NO[C@@](c4cc(Cl)c(F)c(Cl)c4)(C(F)(F)F)C3)ccc12 [Compound 1, (S)-1-(5′-(5-(3,5-dichloro-4-fluorophenyl)-5-(trifluoromethyl)-4,5-dihydroisoxazol-3-yl)-3′H-spiro[azetidine-3,1′-isobenzofuran]-1-yl)-2-(methylsulfonyl)ethanone], the “control of fleas (reduction in geometric mean counts vs placebo)” value [1, 6] was > 95%, the “Geometric mean live fleas (LF)” value ([1]; 57 days) was 0.2 and the “Geometric mean live fleas (LF)” value ([1]; 90 days) was 0.0. The “Geometric mean live fleas (LF)” value ([1]; 118 days) was 0.9, the “Geometric mean live fleas (LF)” value ([1]; 146 days) was 0.8 and the “Geometric mean live fleas (LF)” value ([1]; 174 days) was 13. For the same molecule, the “% Reduction live fleas” value ([1]; 25 mg/kg topical, 57 days) was 98.6%, the “% Reduction live fleas” value ([1]; 25 mg/kg topical, 90 days) was 100% and the “% Reduction live fleas” value ([1]; 25 mg/kg topical, 118 days) was 98.6%. For the same molecule, the “% Reduction live fleas” value ([1]; 25 mg/kg topical, 146 days) was 98.3%, the “% Reduction live fleas” value ([1]; 25 mg/kg topical, 174 days) was 74.3% and the “flux rates and permeation constants with increasing dimethyl isosorbide (FIG. 3)” value ([2]; 250 mg/mL, butyl digol:dimethyl isosorbide 90:10, 80:20, 60:40 v/v %) was “small reduction”. The “flux rates and permeation constants versus oleic acid level (FIG. 4)” value ([2]; 250 mg/mL, butyl digol:oleic acid 95:5, 90:10, 80:20 v/v %) was “increase with increasing oleic acid levels”, the “flux versus drug load (FIG. 2)” value ([2]; 50, 150 and 250 mg/mL in butyl digol:dimethyl isosorbide 90:10 v/v %) was “increased drug load correlates to increased flux” and the “solubility for Compound 1” value [3] was “excellent”. For the same molecule, the “control of ticks (reduction in geometric mean counts vs placebo)” value [4, 6] was > 95%, the “Geometric mean live ticks (LT)” value ([4]; 57 days) was 0.0 and the “Geometric mean live ticks (LT)” value ([4]; 90 days) was 0.0. For the same molecule, the “Geometric mean live ticks (LT)” value ([4]; 118 days) was 0.1, the “Geometric mean live ticks (LT)” value ([4]; 146 days) was 0.3 and the “Geometric mean live ticks (LT)” value ([4]; 174 days) was 4.5. The “% Reduction live ticks” value ([4]; 25 mg/kg topical, 57 days) was 100%, the “% Reduction live ticks” value ([4]; 25 mg/kg topical, 90 days) was 100% and the “% Reduction live ticks” value ([4]; 25 mg/kg topical, 118 days) was 99.1%. The “% Reduction live ticks” value ([4]; 25 mg/kg topical, 146 days) was 97.3%, the “% Reduction live ticks” value ([4]; 25 mg/kg topical, 174 days) was 64.3% and the “# Dead Ticks (mean)” value ([5]; 2-4 hours post infestation) was 0. The “# Dead Ticks (mean)” value ([5]; 24 hours post infestation) was 9.0, the “# Dead Ticks (mean)” value ([5]; 48 hours post infestation) was 9.3 and the “# Dead Ticks (mean)” value ([5]; 72 hours post infestation) was 9.7. For the same molecule, the “% Reduction” value ([5]; 2-4 hours post infestation) was 0.0%, the “% Reduction” value ([5]; 24 hours post infestation) was 100.0% and the “% Reduction” value ([5]; 48 hours post infestation) was 100.0%. The “% Reduction” value ([5]; 72 hours post infestation) was 100.0%, the “duration of contact activity against ticks following the topical dose” value (Ixodes scapularis ticks; hair samples, I. scapularis and R. sanguineus) was “at least 26 days” and the “# Dead Ticks (mean)” value (Ixodes scapularis ticks; 2-4 hours post infestation) was 0. For the same molecule, the “# Dead Ticks (mean)” value (Ixodes scapularis ticks; 24 hours post infestation) was 3.7, the “# Dead Ticks (mean)” value (Ixodes scapularis ticks; 48 hours post infestation) was 7.3 and the “# Dead Ticks (mean)” value (Ixodes scapularis ticks; 72 hours post infestation) was 9.3. For the same molecule, the “% Reduction” value (Ixodes scapularis ticks; 2-4 hours post infestation) was 0.0%, the “% Reduction” value (Ixodes scapularis ticks; 24 hours post infestation) was 72.7% and the “% Reduction” value (Ixodes scapularis ticks; 48 hours post infestation) was 86.4%. For the same molecule, the “% Reduction” value (Ixodes scapularis ticks; 72 hours post infestation) was 85.7%.
